Measurements: US20110313032A1, “COMPETITIVE INHIBITORS OF TYPE II DEHYDROQUINASE ENZYME” (priority 2008, published 2011)
Read-outs that look alike come from different tables or passages of the source.

Key:
[1] = molecular target: T1, type II dehydroquinase from Mycobacterium tuberculosis (Mycobacterium tuberculosis, UniProt P9WPX7); assay: biochemical; settings: pH = 7.0, 25° C., 50 mM Tris•HOAc
Description: (§1) Effect of compounds of formula I of the invention on the catalytic activity of the type II dehydroquinase from various sources. The inhibitory potency of compounds I of the invention against type II dehydroquinases from Mycobacterium tuberculoris, Streptomyces coelicolor and Helicobacter pylori were assayed as it is described in the following articles: 1) Sanchez-Sixto, C.; Prazeres, V. F. V.; Castedo, L.; Lamb, H.; Hawkins, A. R.; Gonzalez-Bello, C. J. Med. Chem. 2005, 48, 4871; 2) Prazeres, V. F. V.; Sanchez-Sixto, C.; Castedo, L.; Lamb, H.; Hawkins, A. R.; Riboldi-Tunnicliffe; Coggins, J. R.; Lapthorn, A. J.; González-Bello, C. Chem Med Chem 2007, 2, 194; and 3) Sanchez-Sixto, C.; Prazeres, V. F. V.; Castedo, L.; S. W. Suh, Lamb, H.; Hawkins, A. R.; Canada, F. J.; Jiménez-Barbero, J.; González-Bello, C. Chem Med Chem 2008, 3, 756.

[2] = molecular target: T2, type II dehydroquinase from Helicobacter pylori (Helicobacter pylori, UniProt Q48255); assay: Inhibition of type II dehydroquinase from Helicobacter pylori (Ki); assay type: biochemical; settings: pH = 7.0, 25° C., 50 mM Tris•HCl
T2 sequence (Q48255 1-167): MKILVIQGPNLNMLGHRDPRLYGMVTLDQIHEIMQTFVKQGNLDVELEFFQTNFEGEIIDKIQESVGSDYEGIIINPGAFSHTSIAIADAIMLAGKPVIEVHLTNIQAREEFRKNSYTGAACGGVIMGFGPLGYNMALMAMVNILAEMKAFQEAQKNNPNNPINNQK
Description: as §1

[3] = molecular target: type II dehydroquinase from Streptomyces coelicolor (Streptomyces coelicolor, UniProt P15474); assay: Inhibition of type II dehydroquinase from Streptomyces coelicolor (Ki); assay type: biochemical
Description: as §1

[4] = molecular target: T2, type II dehydroquinase from Helicobacter pylori; settings: read-out: Km of natural substrate, H. pylori; cited from earlier work
[5] = molecular target: T1, type II dehydroquinase from Mycobacterium tuberculosis; settings: read-out: Km of natural substrate, M. tuberculosis; cited from earlier work
[6] = Inhibition constants Ki, M. tuberculosis
[7] = read-out: Inhibition constants Ki, H. pylori
[8] = Inhibition constants Ki, S. coelicolor, pH = 7.0, 25° C., 50 mM Tris•HCl
[9] = read-out: Inhibition constants Ki, M. tuberculosis
[10] = Inhibition constants Ki, H. pylori
[11] = pH = 7.0, 25° C., 50 mM Tris•HCl, read-out: Inhibition constants Ki, S. coelicolor

type II dehydroquinase from Streptomyces coelicolor, sequence (P15474 whole entry): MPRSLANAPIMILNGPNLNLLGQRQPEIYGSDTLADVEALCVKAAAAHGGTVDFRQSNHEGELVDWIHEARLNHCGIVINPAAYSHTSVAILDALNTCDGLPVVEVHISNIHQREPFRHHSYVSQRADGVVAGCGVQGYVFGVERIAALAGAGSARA
T1 sequence (P9WPX7 whole entry): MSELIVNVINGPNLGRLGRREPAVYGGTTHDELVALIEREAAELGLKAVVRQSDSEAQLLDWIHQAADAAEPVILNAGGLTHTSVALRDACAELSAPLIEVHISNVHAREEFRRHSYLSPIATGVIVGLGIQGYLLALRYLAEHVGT

SMILES | Ki [1, 6] | Ki [2, 7] | Ki [3, 8] | melting point | Ki [1, 9] | Ki [2, 10] | Ki [3, 11] | Ki ([3]; read-out: affinities in the case of S. coelicolor) | Km [4] | Km [5]
Cc1ccc(CC2C(=O)C(O)C(O)CC2(O)C(=O)O)cc1 (single isomer, unassigned) [(2S)-Ia-4] | 90 nM | 970 nM | 150 nM | 134 to 138 °C | – | – | – | – | – | –
COc1ccc(CC2C(=O)C(O)C(O)CC2(O)C(=O)O)cc1 (single isomer, unassigned) [(2S)-Ia-5] | 100 nM | – | 340 nM | 138 to 143 °C | – | – | – | – | – | –
O=C1C(O)C(O)CC(O)(C(=O)O)C1Cc1ccc2sccc2c1 (single isomer, unassigned) [(2S)-Ia-7] | 55 nM | 900 nM | 38 nM | 152 to 155 °C | – | – | – | – | – | –
O=C1[C@@H](O)[C@H](O)C[C@](O)(C(=O)O)[C@H]1Cc1ccccc1 [(2R)-Ia-3, (2R)-2-benzyl-3-dehydroquinic acid] | – | 1400 nM | 1550 nM | 146 to 148 °C | 100 nM | – | – | – | – | –
O=C1[C@@H](O)[C@H](O)C[C@](O)(C(=O)O)[C@@H]1Cc1ccccc1 [(2S)-Ia-3, (2S)-2-benzyl-3-dehydroquinic acid] | – | 1180 nM | 1050 nM | 131 to 134 °C | 90 nM | – | – | – | – | –
O=C(O)[C@@]1(O)C[C@@H](O)[C@H](O)c2sccc21 [Ic-1, (4R, 6R, 7S)-4,6,7-trihydroxy-4,5,6,7-tetrahydrobenzo[b]thiophen-4-carboxylic acid] | 3000 nM | – | – | 128 to 131 °C | – | 34000 nM | 9700 nM | – | – | –
O=C(O)[C@@]1(O)C[C@@H](O)[C@H](O)c2sc(/C=C/C3CC3)cc21 [Ic-6] | 110 nM | – | – | 103 to 105 °C | – | 1080 nM | – | 0.3 nM | – | –
O=C(O)[C@@]1(O)C[C@@H](O)[C@H](O)c2sc(-c3ccccc3)cc21 [Ic-7, (4R,6R,7S)-4,6,7-trihyclroxy-2-phenyl-4,5,6,7-tetrahydroben-zo[b]thiophen-4-carboxylic acid] | 97 nM | – | – | 168 to 173 °C | – | > 150000 nM | 85 nM | – | – | –
CCc1cc2c(s1)[C@@H](O)[C@H](O)C[C@]2(O)C(=O)O [Ic-9, (4R,6R,7S)-2-ethyl-4,6,7-trihydroxy-4,5,6,7-tetrahydrobenzo[b]thiophen-4-carboxylic acid] | 185 nM | – | – | 130 °C (dec.) | – | 3400 nM | 800 nM | – | – | –
O=C(O)[C@@]1(O)C[C@@H](O)[C@H](O)c2sc(/C=C/c3ccccc3)cc21 [Ic-11] | – | – | – | 200 °C (dec.) | – | 16000 nM | 150 nM | – | – | –
O=C1C[C@@](O)(C(=O)O)C[C@@H](O)[C@@H]1O [natural substrate] | – | – | – | – | – | – | – | – | 444 µM | 40 µM
